From patent US10023570B2 (Array BioPharma, Inc., priority 2015, dated 2018)
Structures can show the parent of a compound that is named as a salt.

Biological target: human KDR protein in HEK-293 cells (Homo sapiens (Human), UniProt P35968)
Assay: KDR Cell Assay (phospho-KDR in HEK-293 cells expressing inducible KDR)
Format: cell-based
How it was run: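 HEK-293 cells with inducible human KDR were treated with compound for 1 h in DMEM (0.25% DMSO final), then lysed. Phospho-KDR was quantified by Meso Scale immunoassay, expressed as percent of control, and IC50 taken where a 4-parameter logistic fit crossed 50 POC.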

[1] = pKDR Cell HEK 10% FBS IC50, HEK-293 cells expressing inducible KDR, VEGF stimulated
[2] = pKDR Cell HEK 10% FBS IC50, HEK-293 cells expressing inducible KDR, VEGF stimulated, 10% FBS

Sequence of human KDR protein in HEK-293 cells (P35968 20-1356): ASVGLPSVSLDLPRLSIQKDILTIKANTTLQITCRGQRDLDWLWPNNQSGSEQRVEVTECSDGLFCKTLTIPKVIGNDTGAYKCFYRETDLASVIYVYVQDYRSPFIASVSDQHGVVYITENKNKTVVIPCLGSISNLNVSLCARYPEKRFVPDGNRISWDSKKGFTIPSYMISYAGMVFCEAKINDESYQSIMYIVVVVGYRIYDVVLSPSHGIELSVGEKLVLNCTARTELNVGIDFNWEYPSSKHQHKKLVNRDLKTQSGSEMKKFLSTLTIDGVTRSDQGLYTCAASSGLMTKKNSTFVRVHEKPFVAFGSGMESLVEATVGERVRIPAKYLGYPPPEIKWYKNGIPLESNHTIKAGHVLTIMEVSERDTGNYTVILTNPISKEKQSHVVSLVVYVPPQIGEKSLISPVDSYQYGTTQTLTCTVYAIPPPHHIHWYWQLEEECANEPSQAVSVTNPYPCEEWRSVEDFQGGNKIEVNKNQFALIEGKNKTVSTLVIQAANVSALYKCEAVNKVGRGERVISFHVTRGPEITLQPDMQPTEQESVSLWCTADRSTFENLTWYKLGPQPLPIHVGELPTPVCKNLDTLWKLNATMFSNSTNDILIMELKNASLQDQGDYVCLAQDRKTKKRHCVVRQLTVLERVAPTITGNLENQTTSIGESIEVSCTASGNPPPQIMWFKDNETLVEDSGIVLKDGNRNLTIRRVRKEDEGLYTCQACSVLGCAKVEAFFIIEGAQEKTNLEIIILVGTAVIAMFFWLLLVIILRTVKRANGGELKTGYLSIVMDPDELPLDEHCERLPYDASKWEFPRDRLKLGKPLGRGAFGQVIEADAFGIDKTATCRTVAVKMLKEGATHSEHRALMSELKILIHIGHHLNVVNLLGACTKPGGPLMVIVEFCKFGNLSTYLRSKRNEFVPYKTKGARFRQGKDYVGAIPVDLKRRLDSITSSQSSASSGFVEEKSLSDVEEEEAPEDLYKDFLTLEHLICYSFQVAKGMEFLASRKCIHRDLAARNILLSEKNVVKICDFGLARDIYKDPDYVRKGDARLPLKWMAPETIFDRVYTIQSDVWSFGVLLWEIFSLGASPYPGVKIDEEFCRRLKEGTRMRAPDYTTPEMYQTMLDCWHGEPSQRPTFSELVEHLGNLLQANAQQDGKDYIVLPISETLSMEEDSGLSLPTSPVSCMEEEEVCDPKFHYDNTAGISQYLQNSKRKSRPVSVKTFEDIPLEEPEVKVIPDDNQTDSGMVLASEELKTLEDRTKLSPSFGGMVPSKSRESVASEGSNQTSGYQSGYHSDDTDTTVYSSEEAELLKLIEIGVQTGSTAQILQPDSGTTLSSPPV

IC50 [1] [nM] | IC50 [2] [nM] | Structure (SMILES) | further results
– | 1660 | CC(C)C(=O)N1CC2(CCN(c3ccc(-c4cc(-c5cnn(C)c5)cn5ncc(C#N)c45)cn3)CC2)C1 [Example 221, 4-(6-(2-isobutyryl-2,7-diazaspiro[3.5]nonan-7-yl)pyridin-3-yl)-6-(1-methyl-1H-pyrazol-4-yl)pyrazolo[1,5-a]pyridine-3-carbonitrile] | –
2030 | – | CCCCN(C(=O)N1CCN(c2ccc(-c3cc(-c4cnn(C)c4)cn4ncc(C#N)c34)cn2)CC1)c1ccccc1 [Example 377, N-butyl-4-(5-(3-cyano-6-(1-methyl-1H-pyrazol-4-yl)pyrazolo[1,5-a]pyridin-4-yl)pyridine-2-yl)-N-phenylpiperazine-1-carboxamide] | –
986 | – | Cn1cc(-c2cc(-c3ccc(N4CCN(C(=O)N5CCC(C(F)(F)F)C5)CC4)nc3)c3c(C#N)cnn3c2)cn1 (stereo not shown) [Example 391, 6-(1-methyl-1H-pyrazol-4-yl)-4-(6-(4-(3-(trifluoromethyl)pyrrolidine-1-carbonyl)piperazin-1-yl)pyridin-3-yl)pyrazolo[1,5-a]pyridine-3-carbonitrile] | –
– | 115 | Cn1cc(-c2cc(-c3ccc(N4CCN(C(=O)[C@@H](O)c5ccccc5)CC4)nc3)c3c(C#N)cnn3c2)cn1 [Example 6, (S)-4-(6-(4-(2-hydroxy-2-phenylacetyl)piperazin-1-yl)pyridin-3-yl)-6-(1-methyl-1H-pyrazol-4-yl)pyrazolo[1,5-a]pyridine-3-carbonitrile] | –
≥ 5000 | – | Cc1ncc(-c2cc(-c3ccc(N4CCN(Cc5ccccc5)CC4)nc3)c3c(C#N)cnn3c2)o1 [Example 628, 4-(6-(4-benzylpiperazin-1-yl)pyridin-3-yl)-6-(2-methyloxazol-5-yl)pyrazolo[1,5-a]pyridine-3-carbonitrile] | –
4800 | – | Cn1cc(-c2cc(-c3ccc(N4CC5(CCN(Cc6ccccc6)CC5)C4)nc3)c3c(C#N)cnn3c2)cn1 [Example 485, 4-(6-(7-benzyl-2,7-diazaspiro[3.5]nonan-2-yl)pyridin-3-yl)-6-(1-methyl-1H-pyrazol-4-yl)pyrazolo[1,5-a]pyridine-3-carbonitrile] | –
– | 257 | CC(C)OC(=O)N1CC2(CCN(c3ccc(-c4cc(-c5cnn(C)c5)cn5ncc(C#N)c45)cn3)CC2)C1 [Example 222, isopropyl 7-(5-(3-cyano-6-(1-methyl-1H-pyrazol-4-yl)pyrazolo[1,5-a]pyridin-4-yl)pyridin-2-yl)-2,7-diazaspiro[3.5]nonane-2-carboxylate] | –
1490 | – | COc1ccc(Cn2cc(-c3cc(-c4ccc(N5CCNCC5)nc4)c4c(C#N)cnn4c3)cn2)cc1 [Example 590, 6-(1-(4-methoxybenzyl)-1H-pyrazol-4-yl)-4-(6-(piperazin-1-yl)pyridin-3-yl)pyrazolo[1,5-a]pyridine-3-carbonitrile] | –
942 | – | C[C@@H](c1ccccc1)N1CCN(c2ccc(-c3cc(-c4cnn(C)c4)cn4ncc(C#N)c34)cn2)CC1 [Example 422, (S)-6-(1-methyl-1H-pyrazol-4-yl)-4-(6-(4-(1-phenylethyl)piperazin-1-yl)pyridine-3-yl)pyrazolo[1,5-a]pyridine-3-carbonitrile dihydrochloride] | –
4680 | – | Cn1cc(-c2cc(-c3cnc(N4CCN(Cc5ccccc5)CC4)nc3)c3c(C#N)cnn3c2)cn1 [Example 639, 4-(2-(4-benzylpiperazin-1-yl)pyrimidin-5-yl)-6-(1-methyl-1H-pyrazol-4-yl)pyrazolo[1,5-a]pyridine-3-carbonitrile] | –
– | 2270 | Cn1cc(-c2cc(-c3ccc(N4CCN(C(=O)N5CCOCC5)CC4)nc3)c3c(C#N)cnn3c2)cn1 [Example 119, 6-(1-methyl-1H-pyrazol-4-yl)-4-(6-(4-(morpholine-4-carbonyl)piperazin-1-yl)pyridin-3-yl)pyrazolo[1,5-a]pyridine-3-carbonitrile] | –
– | 4830 | CO[C@H]1CCN(C(=O)N2CCN(c3ncc(-c4cc(-c5cnn(C)c5)cn5ncc(C#N)c45)cn3)CC2)C1 [Example 286, (S)-4-(2-(4-(3-methoxypyrrolidine-1-carbonyl)piperazin-1-yl)pyrimidin-5-yl)-6-(1-methyl-1H-pyrazol-4-yl)pyrazolo[1,5-a]pyridine-3-carbonitrile] | –
– | 2140 | CC(C)CC(=O)N1CCN(c2ccc(-c3cc(-c4ccn(C)n4)cn4ncc(C#N)c34)cn2)CC1 [Example 273, 6-(1-methyl-1H-pyrazol-3-yl)-4-(6-(4-(3-methylbutanoyl)piperazin-1-yl)pyridin-3-yl)pyrazolo[1,5-a]pyridine-3-carbonitrile] | –
– | 1190 | Cn1cc(-c2cc(-c3ccc(N4CCN(C(=O)[C@H]5CC[C@@H](O)C5)CC4)nc3)c3c(C#N)cnn3c2)cn1 [Example 12, 4-(6-(4-((1S,3R)-3-hydroxycyclopentane-1-carbonyl)piperazin-1-yl)pyridin-3-yl)-6-(1-methyl-1H-pyrazol-4-yl)pyrazolo[1,5-a]pyridine-3-carbonitrile] | –

Continued, compound first:

Structure (SMILES) | IC50 [1] [nM] | IC50 [2] [nM] | further results
Cn1cc(-c2cc(-c3ccc(N4CCN(C(=O)[C@@H](CO)c5ccccc5)CC4)nc3)c3c(C#N)cnn3c2)cn1 [Example 373, (R)-4-(6-(4-(3-hydroxy-2-phenylpropanol)piperazin-1-yl)pyridin-3-yl)-6-(1-methyl-1H-pyrazol-4-yl)pyrazolo[1,5-a]pyridine-3-carbonitrile] | 1820 | – | –
Cn1cc(-c2cc(-c3ccc(N4CCN(C(=O)C5CCOCC5)CC4)nc3)c3c(C#N)cnn3c2)cn1 [Example 74, 6-(1-methyl-1H-pyrazol-4-yl)-4-(6-(4-(tetrahydro-2H-pyran-4-carbonyl)piperazin-1-yl)pyridin-3-yl)pyrazolo[1,5-a]pyridine-3-carbonitrile] | – | 1350 | –
Cn1cc(-c2cc(-c3ccc(N4CCN(C5CCOC5)CC4)nc3)c3c(C#N)cnn3c2)cn1 (stereo not shown) [Example 505, 6-(1-methyl-1H-pyrazol-4-yl)-4-(6-(4-(tetrahydrofuran-3-yl)piperazin-1-yl)pyridin-3-yl)pyrazolo[1,5-a]pyridine-3-carbonitrile bis(2,2,2-trifluoroacetate)] | 1300 | – | –
Cn1cc(-c2cc(-c3ccc(N4CCN(C(=O)c5cnccn5)CC4)nc3)c3c(C#N)cnn3c2)cn1 [Example 38, 6-(1-methyl-1H-pyrazol-4-yl)-4-(6-(4-(pyrazine-2-carbonyl)piperazin-1-yl)pyridin-3-yl)pyrazolo[1,5-a]pyridine-3-carbonitrile 2,2,2-trifluoroacetate] | – | 396 | –
Cn1cc(-c2cc(-c3ccc(N4CCC5(CCNCC5)CC4)nc3)c3c(C#N)cnn3c2)cn1 [Example 539, 4-(6-(3,9-diazaspiro[5.5]undecan-3-yl)pyridin-3-yl)-6-(1-methyl-1H-pyrazol-4-yl)pyrazolo[1,5-a]pyridine-3-carbonitrile dihydrochloride] | 1640 | – | –
Cn1cc(-c2cc(-c3ccc(N4CCN(Cc5ccncc5F)CC4)nc3)c3c(C#N)cnn3c2)cn1 [Example 434, 4-(6-(4-((3-fluoropyridin-4-yl)methyl)piperazin-1-yl)pyridin-3-yl)-6-(1-methyl-1H-pyrazol-4-yl)pyrazolo[1,5-a]pyridine-3-carbonitrile] | 1700 | – | –
Cn1cc(-c2cc(-c3ccc(N4CCN(C(=O)C5(c6cnccn6)CC5)CC4)nc3)c3c(C#N)cnn3c2)cn1 [Example 350, 6-(1-methyl-1H-pyrazol-4-yl)-4-(6-(4-(1-(pyrazin-2-yl)cyclopropane-carbonyl)piperazin-1-yl)pyridin-3-yl)pyrazolo[1,5-a]pyridine-3-carbonitrile] | – | 1860 | –
CC[C@H](O)CN1CCN(c2ccc(-c3cc(-c4cnn(C)c4)cn4ncc(C#N)c34)cn2)CC1 [Example 150, (S)-4-(6-(4-(2-hydroxybutyl)piperazin-1-yl)pyridin-3-yl)-6-(1-methyl-1H-pyrazol-4-yl)pyrazolo[1,5-a]pyridine-3-carbonitrile] | – | – | IC50 (pKDR Cell HEK 10% FBS IC50): 728 nM
Cn1cc(-c2cc(-c3ccc(C4CCN(Cc5ccccc5)C4)nc3)c3c(C#N)cnn3c2)cn1 (stereo not shown) [Example 582, 4-(6-(1-benzylpyrrolidin-3-yl)pyridine-3-yl)-6-(1-methyl-1H-pyrazol-4-yl)pyrazolo[1,5-a]pyridine-3-carbonitrile] | 561 | – | –
Cn1cc(-c2cc(-c3ccc(N4CCC5(CC4)CN(C(=O)C4CCC4)C5)nc3)c3c(C#N)cnn3c2)cn1 [Example 493, 4-(6-(2-(cyclobutanecarbonyl)-2,7-diazaspiro[3.5]nonan-7-yl)pyridin-3-yl)-6-(1-methyl-1H-pyrazol-4-yl)pyrazolo[1,5-a]pyridine-3-carbonitrile] | 928 | – | –
Cn1cc(-c2cc(-c3ccc(N4CCN(C(=O)C5(O)CC5)CC4)nc3)c3c(C#N)cnn3c2)cn1 [Example 81, 4-(6-(4-(1-hydroxycyclopropane-1-carbonyl)piperazin-1-yl)pyridin-3-yl)-6-(1-methyl-1H-pyrazol-4-yl)pyrazolo[1,5-a]pyridine-3-carbonitrile] | – | 762 | –
Cn1cc(-c2cc(-c3ccc(N4CCNC5(CC5)C4)nc3)c3c(C#N)cnn3c2)cn1 [Example 167, 4-(6-(4,7-diazaspiro[2.5]octan-7-yl)pyridin-3-yl)-6-(1-methyl-1H-pyrazol-4-yl)pyrazolo[1,5-a]pyridine-3-carbonitrile dihydrochloride] | – | 780 | –
Cn1cc(-c2cc(-c3ccc(N4CCN(Cc5nccn5C)CC4)nc3)c3c(C#N)cnn3c2)cn1 [Example 437, 4-(6-(4-((1-methyl-1H-imidazol-2-yl)methyl)piperazin-1-yl)pyridin-3-yl)-6-(1-methyl-1H-pyrazol-4-yl)pyrazolo[1,5-a]pyridine-3-carbonitrile] | 1970 | – | –
Cn1cc(-c2cc(-c3ccc(N4CCN(C(=O)[C@@H](N)c5ccccc5)CC4)nc3)c3c(C#N)cnn3c2)cn1 [Example 50, (S)-4-(6-(4-(2-amino-2-phenylacetyl)piperazin-1-yl)pyridin-3-yl)-6-(1-methyl-1H-pyrazol-4-yl)pyrazolo[1,5-a]pyridine-3-carbonitrile bis(2,2,2-trifluoroacetate)] | – | 1190 | –
